From patent US20050070565A1, “Chelerythrine, analogs thereof and their use in the treatment of bipolar disorder and other cognitive disorders” (priority 2003, published 2005)
“Also recorded” adds a separate entry of the source.

How the values were obtained:
rats [1] = experiment: Spatial delayed alternation task in a T maze (working memory); type: in vivo, rat
Experimental: (§1) The influence of PKC activation on prefrontal cortical function was tested in rats and monkeys performing spatial working memory tasks that are critically dependant upon the integrity of the prefrontal cortex. All procedures were approved by the Yale Institutional Animal Care and Use Committee. Rats were trained on the spatial delayed alternation task in a T maze, or on a control task, spatial discrimination, which has similar motor and motivational demands but depends upon the posterior cortex and not the prefrontal cortex. Performance on the delayed alternation task is dependant upon the length of the delay between trials. The delay was raised as needed to maintain each individual animals performance at approximately 70% correct, allowing room for improvement or impairment in performance following drug administration.
Following behavioral training, rats were implanted with guide cannulae to allow drug infusions into the prefrontal cortex (stereotaxic coordinates from bregma and skull surface: anterior +3.2 mm, lateral ±0.75 mm, ventral −1.7 mm). The infusion needles projected 2.8 mm below the guide cannula such that the infusion site was −4.5 mm ventral to skull surface. Rats were allowed to recover for one week following surgery. Drug treatments were administered only after the animal achieved stable performance (60-80% correct) for two consecutive days. […] The PMA-induced working memory impairment was blocked by co-administration of chelerythrine, which had no effect on performance when administered alone (FIG. 10A). In contrast, PMA (5 picograms PMA/0.5 μl) had no effect on performance of the control spatial discrimination task (10 sec delays, mean performance after vehicle: 92.0%±11.0%, mean performance after PMA: 88.0%±13.0%, p=0.587, Tdep test).
(§2) NE α-1 adrenergic receptors are positively coupled to PKC through a Gq-protein linked to the PI intracellular signaling pathway (FIG. 1). Previous studies have shown that infusion of the α-1 adrenergic receptor agonist, phenylephrine, into the prefrontal cortex impairs working memory in both rats (Arnsten et al., 1999; FIGS. 2, 6 and 10B) and monkeys (Mao et al, 1999). Likewise, systemic injections of cirazoline, an α-1 adrenergic receptor agonist that crosses the blood brain barrier, impairs working memory in monkeys (FIGS. 5 and 10C). Thus, PKC was activated indirectly by infusing phenylephrine into the prefrontal cortex in rats (5 min prior to cognitive testing), or by systemic administration of cirazoline in monkeys (intramuscular injections, 30 min prior to cognitive testing). Monkeys had been previously trained on the spatial delayed response task, the task most commonly used to assess prefrontal cortical function in nonhuman primates. The PKC inhibitor, chelerythrine, was administered directly into the prefrontal cortex in rats (5 min prior to cognitive testing), or systemically in monkeys (oral administration, 60 min prior to cognitive testing).
(§3) The anxiogenic stressor, FG7142, was administered systemically to rats (interperitonial injection) or monkeys (intramuscular injection) 30 min prior to cognitive testing. Chelerythrine was administered directly into the prefrontal cortex in rats (15 min prior to cognitive testing), or systemically in monkeys (oral administration, 60 min prior to cognitive testing). […] This cognitive impairment was blocked by chelerythrine (FIGS. 11A and 11B), consistent with stress-induced activation of PKC.
(§4) Rats were injected with 0, 0.3, or 3.0 mg/kg chelerythrine s.c. in water approximately 45 minutes before cognitive testing; they receive an injection of the pharmacological stressor, FG7142 (15 mg/kg, i.p.) or vehicle 30 minutes prior to cognitive testing. All drug treatments occur at least one week apart, and the order of treatments is counterbalanced between animals. […] All ratings were performed by experimenters who were very familiar with the normative behavior of the animal but were unaware of the drug treatment conditions.

rhesus monkeys [2] = experiment: Spatial delayed response task (working memory); type: in vivo, rhesus monkey
Description: as §2, §3
(§5) Chelerythrine was administered orally to rhesus monkeys at doses of either […] or 0.3 mg/kg 60 min before cognitive testing, 30 minutes prior to stress exposure (FG7142 0.2-1.0 mg/kg, i.m.). In addition to cognitive testing, monkeys are also assessed for changes in sedation, agitation, aggression, motivation, food intake, and both fine and gross motor abilities. Four monkeys were tested.

rats [3] = experiment: Response time per trial (stress-induced freezing) during delayed alternation testing; type: in vivo, rat
Experimental: FIG. 11 illustrates a summary whereby treatment with chelerythrine reverses the detrimental effects of: A. stress in rats; or B. stress in monkeys. […] In A, the anxiogenic stressor, FG7142 (range: 10 to 20 mg/kg), impaired delayed alternation performance compared to vehicle treatment in rats (vehicle+vehicle vs. FG7142+vehicle: * ANOVA-R, F1,10=25.095, p=0.001). The FG7142-induced cognitive deficit was reversed by infusion of the PKC inhibitor, chelerythrine, into the prefrontal cortex 15 min prior to testing (0.3 μg/0.5 μl; FG7142+vehicle vs. FG7142+chelerythrine: † F1,10=10.170, p=0.010). […] The FG7142-induced cognitive deficit was reversed by pretreatment with the PKC inhibitor, chelerythrine (0.03 mg/kg; FG7142+vehicle vs. FG7142+chelerythrine: † F1,4=21.23, p=0.006).
For example, stressors such as FG7142 induce freezing behaviors in rodents that effectively lengthen the delays and increase the memory demands of the task (FIG. 11C).

rats [4] = experiment: Spatial discrimination control task; type: in vivo, rat; details: 5 picograms PMA/0.5 μl
Experimental: as §1
Following behavioral training, rats were implanted with guide cannulae to allow drug infusions into the prefrontal cortex (stereotaxic coordinates from bregma and skull surface: anterior +3.2 mm, lateral ±0.75 mm, ventral −1.7 mm). The infusion needles projected 2.8 mm below the guide cannula such that the infusion site was −4.5 mm ventral to skull surface. Rats were allowed to recover for one week following surgery. Drug treatments were administered only after the animal achieved stable performance (60-80% correct) for two consecutive days. […]

rhesus monkeys [5] = experiment: Assessment of sedation, agitation, aggression, motivation, food intake and motor abilities; type: in vivo, rhesus monkey; details: oral 0.03 or 0.3 mg/kg
Experimental: as §5

rats [6] = experiment: Behavioral observations for side effects in home cage and during cognitive testing; type: in vivo, rat; details: 0.3 or 3.0 mg/kg s.c.
Experimental: as §4

rats [7] = details: cited from earlier work
[8] = co-infusion into prefrontal cortex, chelerythrine 0.3 μg/0.5 μl

CNC(=O)c1cc2c(cn1)[nH]c1ccccc12 [FG7142, reference compound]
delayed alternation performance after stressor vs vehicle (rats [1]; FG7142 10 to 20 mg/kg, 30 min prior to testing): impaired | delayed response performance after stressor vs vehicle (rhesus monkeys [2]; monkeys, FG7142 0.2 to 2.0 mg/kg injection): significantly impaired | average response time for each trial after stressor vs vehicle (rats [3]; FG7142): increased response time

CCCCCCCCCCCCCC(=O)O[C@@H]1[C@@H](C)[C@@]2(O)[C@@H](C=C(CO)C[C@]3(O)C(=O)C(C)=C[C@@H]23)[C@@H]2C(C)(C)[C@]12OC(C)=O [PMA, phorbol 12-myristate 13-acetate]
delayed alternation performance after direct PKC activation vs vehicle (rats [1]; PMA infused into prefrontal cortex, 0.05 to 5 pg/0.5 μl, 10 min prior to testing): significantly impaired | effect on performance of control spatial discrimination task (rats [4]): no effect | mean performance on control spatial discrimination task (rats [4]; 10 sec delays, vehicle 92.0%±11.0%, p=0.587): 88.0%±13.0%

COc1ccc2c(c[n+](C)c3c4cc5c(cc4ccc23)OCO5)c1OC.[Cl-] [chelerythrine, 1,2-dimethoxy-12-methyl[1,3]benzodioxolo[5,6-c]phenanthridinium]
effect on detrimental effects of stress exposure, lower systemic dose (rats [1]; 0.3 mg/kg s.c., 45 min before testing, FG7142 15 mg/kg i.p., p=0.018, n=4): significantly reversed | effect on cognitive deficits due to stress, higher systemic dose (rats [1]; 3.0 mg/kg s.c., FG7142 15 mg/kg i.p.): did not reverse | average correct, drug on its own (rats [1]; 3.0 mg/kg s.c., no stressor, similar to vehicle): 72.5 % correct | effect on PMA-induced working memory deficit (rats [1]; [8]): reversed; also recorded: blocked | effect on phenylephrine-induced working memory deficit (rats [1]; [8]): significantly reversed | effect on FG7142 (stress)-induced cognitive deficit (rats [1]; infusion into prefrontal cortex 0.3 μg/0.5 μl, 15 min prior to testing): significantly reversed | effect on stress response (cognitive deficit), higher infused dose (rats [1]; infusion into prefrontal cortex 3.0 μg/0.51 μl): did not reverse | performance when higher dose infused by itself (rats [1]; infusion into prefrontal cortex 3.0 μg/0.51 μl, no stress): no effect | delayed alternation performance, drug on its own (rats [1]; infusion into prefrontal cortex, 0.3 μg/0.5 μl, no challenge): no effect | tolerability / side effects (rhesus monkeys [5]): well-tolerated with no side effects | side effects with administration by itself (rats [6]): no significant side effects | effect on FG7142-induced cognitive deficit (rhesus monkeys [2]; monkeys, chelerythrine pretreatment 0.03 mg/kg): reversed | effect on cirazoline-induced working memory deficit (rhesus monkeys [2]; monkeys, chelerythrine pretreatment 0.03 mg/kg oral, 60 min prior to testing): reversed | delayed response (cognitive) performance, drug on its own (rhesus monkeys [2]; monkeys, oral chelerythrine, no challenge): no effect | share of monkeys with complete protection at the lower dose (rhesus monkeys [2]; rhesus monkeys, 0.03 mg/kg oral, other half required 0.3 mg/kg for full reversal): Half of the monkeys showed complete protection | effect on detrimental effects of stress on prefrontal cortical function (rhesus monkeys [2]; rhesus monkeys, oral 0.03/kg or 0.3 mg/kg 60 min before testing, FG7142 0.2-1.0 mg/kg i.m., n=4, p<0.05): significantly reversed | effect on FG7142-induced increased response time (rats [3]; chelerythrine infused into prefrontal cortex): not blocked; also recorded: no effect on response time

c1ccc(C2CC2)c(OCC2=NCCN2)c1 [cirazoline, reference compound]
delayed response performance after α-1 agonist vs vehicle (rhesus monkeys [2]; monkeys, cirazoline 0.001 to 10 μg/kg intramuscular, 30 min prior to testing): significantly impaired

CNC[C@H](O)c1cccc(O)c1 [phenylephrine, reference compound]
delayed alternation performance after α-1 agonist infusion vs vehicle (rats [1]; phenylephrine 0.1 μg/0.5 μl into prefrontal cortex, 5 min prior to testing): significantly impaired

COc1ccccc1N1CCN(CCCNc2cc(=O)n(C)c(=O)n2C)CC1 [urapidil]
effect on phenylephrine-induced working memory impairment (FIG. 2) (rats [7]; co-infusion of urapidil into prefrontal cortex): prevented | effect on stress-induced working memory impairment (FIG. 3) (rats [7]; urapidil infused into prefrontal cortex): prevented
